One data set deals with proteinase K. The experiment in a line: Proteinase K peptide stability assay. Particulars: 55 μM peptide, 10 μg/mL proteinase K; some significant degradation. As to the method:
Data are from three independent replicates with standard error indicated. Scale bar indicates 50 μm.
Peptide stability assays were performed using the protocols described in Cromm et al., Protease-resistant and cell-permeable double-stapled peptides targeting the Rab8a GTPase, ACS Chemical Biology 11(8): 2375-2382 (2016). Briefly, 55 μM of peptide was incubated with 10 μg/mL proteinase K for the indicated timepoints. At the end of each time point, 50 μL of the reaction mixture were quenched in 100 μL of a 1:1 mixture acetonitrile/water+1% formic acid (FA). Samples were injected and analyzed on a Triple quad. Analysis was done using an Agilent Technologies 1200 Series attached to an Agilent Technologies 6460 Triple Quad LC/MS. Analysis was performed with a ZORBAX XDB-C18 […], 2.1×50 mm column (Agilent Technologies, Inc., Santa Clara, CA). Eluent A: H2O with 0.1% FA. Eluent B: MeCN with 0.1% FA. Purity analysis utilized the gradient as follows: (A:B, 0.3 mL/min): 95:5, 0 minutes; 95:5, 1 minute; 5:95, 5 minutes; 5:95, 8 minutes: 95:5, 8.5 minutes; 95:5, 12.5 minutes.

The test system of the next data set is A549 cells. The experiment in a line: Confocal microscopy of FITC-labeled peptides, cell permeability. It counts as cell-based. As to the method:
To determine whether this was a result of poor cell permeability by compounds N2S and N3S, fluorophore labeled versions of these peptides were generated, and confocal microscopy was used to determine the abilities of these peptides to enter cells (FIG. 5C).
Briefly, A549 cells at 9.5×10^4 cells/ml in 600 μl media were plated on 10 mm glass-bottomed, 24-well plates (Chemglass Life Sciences Cell Culture Plate, 24-Well, Fisher Scientific, Waltham, MA) and cultured for overnight at 37 °C, 5% CO2, in complete growth medium (RPMI supplemented with 10% fetal calf serum, L-glutamine, and non-essential amino acids). The next day, cells were treated with fresh, pre-warmed complete growth medium supplemented with the desired FITC-labeled peptide or DMSO vehicle control at a final concentration of 100 μM FITC labeled peptide and 1% DMSO. After 90 minutes of treatment, cells were washed three times in warm PBS to remove excess peptide from the cell surface and left in modified Krebs-Ringer buffer solution [KRBH: 134 mM NaCl. 3.5 mM KCl. 1.2 mM KH2PO4, 0.5 mM MgSO4, 1.5 mM CaCl2), 5 mM NaHCO3, 10 mM HEPES (pH 7.4)] containing Hoechst stain at 1 μg/ml. Cells were immediately analyzed under a Nikon A1 confocal microscope (Resonant). The images were taken at 20× magnification with fluorescence excitation wavelengths at 409 for the Hoechst and 488 for the FITC. Images were processed using NIS-Elements AR. Dietrich et al., Cell permeable stapled peptide inhibitor of Wnt signaling that targets 0-catenin protein-protein interactions, Cell Chemical Biology 24(8): 958-968.e5 (2017); Dougherty et al., Enhancing the cell-permeability of stapled peptides with a cyclic cell-penetrating peptide, J Medicinal Chemistry 62(22): 10098 (2019).

A further data set addresses T1, MafG (Homo sapiens, UniProt O15525).
T1 construct: made in house; host or cells: E. coli Rosetta (DE3), vector pET15B, Ni-NTA purified
The data set is described as follows: Surface plasmon resonance (SPR). It counts as binding. The procedure: To determine the affinity of binding between MafG and compound NIS, surface plasmon resonance (SPR) was performed with biotin-labeled compound NIS and His-MafG. For all SPR-binding measurements, a Biacore 100-Instrument (Biacore-GE) was used. Binding between MafG and biotin-labeled compound NIS peptide was performed by first immobilizing the biotin N1S peptide on a SA chip (Cytiva, Marlborough, MA). The binding buffer (150 mM NaCl, 10 mM HEPES, pH 7.5, 1 mM MgCl2, 1 mM […] (TCEP) and 0.05% P-20) was used. Biotin-compound NIS (1 μM) was injected at a rate of 10 μl min^−1 for 10 minutes, immobilizing approximately 528 response units. Increasing concentrations of MafG (two-fold dilutions between 2.5 μM and 0.100 μM, including two blanks) were subsequently passed over the Biotin-compound N1S functionalized chip as well as a streptavidin reference surface. Multiple cycle analysis was carried out, without regenerating the chip between different MafG concentrations. Binding data was reference normalized and processed using Prism software, A one-site binding model was applied to the processed data set to determine binding parameters of MafG binding to N1S.
On the technique in general: In SPR one partner is held on a chip, and binding of the other changes the refractive index at the surface.

Data set [1] addresses T2, Nrf2-MafG-DNA ARE complex (Homo sapiens, UniProt O15525).
T2 construct: listing gives 93-aa segments
The data set is described as follows: Fluorescence polarization assay with Nrf2, MafG and FAM-labeled ARE. Type of data set: biochemical. The following applies: 200 nM His-MBP-NRF2, 200 nM His-MafG, 20 nM FAM-labeled ARE; 'as low as'. The procedure:
Briefly, a 96-well plate (VWR® Solid Bottom Assay Plates, 96-well, black) was used to encapsulate each fluorescence polarization reaction. Unless otherwise stated (i.e., ARE only, ARE+MafG), each 100-μL reaction contained 200 nM purified recombinant His-MBP-NRF2, 200 nM purified recombinant His-MafG, various concentrations of molecule, and 20 nM 5′ FAM-labeled ARE all together in 1× PBS solution.
First, NRF2 was incubated with molecule for 5 minutes with shaking, followed by the addition of MafG for another 5-minute incubation. Finally, ARE was added, and the MafG-NRF2-ARE system was incubated for 10 minutes with shaking. After incubation, the plate was placed into a plate reader (Molecular Devices SpectraMax® iD5 Multi-Mode Microplate Reader). The fluorescence polarization measurement was performed at excitation/emission values of 470:525 nm, respectively. The samples were in triplicate (n=3).
Background: Polarisation of emitted light reports the rotation of a fluorescent probe.

For the next data set, the target named is Nrf2/MafG heterodimer (Homo sapiens, UniProt O15525). The data set is described as follows: Split luciferase assay with purified MafG and Nrf2. Type of data set: biochemical. The following applies: in vitro, FIG. 6A; listed as NIS. An excerpt: Data shown are from three technical replicates with standard error. The data are representative of three independent experiments. *p<0.05, **p<0.01, ***p<0.001, student's T-test compared to dimethyl sulfoxide (DMSO).

pKd: −log10 of the molar value. Entries after “also recorded” stand apart in the source; their conditions may differ. Bridge positions count the residues as written; N and C are the ends. Square brackets hold non-standard residues; d marks the D form. Peptide text beside a SMILES is read from it. S5 = C=CCCC[C@](C)(N)C(=O)O

The values below come from patent US20260365698A1, “STAPLED PEPTIDES FOR SENSITIZATION OF CANCER TO TREATMENT” (Purdue Research Foundation, priority 2022, published 2026).

T1 sequence (O15525 whole entry): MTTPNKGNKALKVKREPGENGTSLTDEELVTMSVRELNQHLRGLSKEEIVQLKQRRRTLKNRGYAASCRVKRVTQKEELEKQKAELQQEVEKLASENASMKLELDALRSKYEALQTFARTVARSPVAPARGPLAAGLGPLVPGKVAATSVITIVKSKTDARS
Nrf2/MafG heterodimer, sequence (O15525 whole entry, one chain of several): as the sequence (O15525 whole entry) above
T2 sequence (O15525 whole entry, one chain of several): as the sequence (O15525 whole entry) above

For `CC[C@H](C)[C@H](NC(C)=O)C(=O)N[C@H](C(=O)N[C@@H](CCC(=O)O)C(=O)N[C@@H](CC(C)C)C(=O)N[C@@H](CCC(=O)O)C(=O)N[C@@]1(C)CCCC=CCCC[C@@](C)(C(=O)N[C@@H](CC(C)C)C(=O)N[C@@H](CCCCN)C(=O)N[C@@H](CC(=O)O)C(=O)N[C@@H](CCC(=O)O)C(=O)N[C@@H](CCCCN)C(=O)N[C@@H](CCC(=O)O)C(N)=O)NC(=O)[C@H](CC(=O)O)NC(=O)[C@H](CC(C)C)NC(=O)[C@H](CC(=O)O)NC1=O)C(C)C` [N1S] (Ac-IVELE[S5]DLD[S5]LKDEKE-NH2; staple 6-10), the “time at which significant degradation starts” value in the data set on proteinase K is 24 h. Also, the “cellular and nuclear permeability” value with A549 cells (FITC-labeled peptide, 100 μM, 90 minutes, A549 cells) is “good”. For the same compound, in the data set on A549 cells (summary statement), the entry into cells result is on record as “can enter cells”. In addition, on MafG (biotin-labeled N1S on SA chip, His-MafG passed over, one-site binding model, read-out: dissociation constant), the pKd was 6.47. Also, the “direct binding to MafG” value on MafG (summary of in vitro analysis) is listed as “directly binds MafG”. This compound gave a lowest concentration decreasing binding of the heterodimer to the DNA in data set [1] of 0.2 µM. Besides, the “inhibition of dimerization of Nrf2 with MafG” value at Nrf2/MafG heterodimer is listed as “inhibiting dimerization of Nrf2 with MagF in vitro in a dose-dependent manner; also recorded: inhibits its dimerization with Nrf2”.
